Measured values as given in US10517867B2, “Posaconazole derivative, pharmaceutical composition and use thereof” (priority 2016, dated 2019).
Like-named read-outs stand apart in the source and are kept apart here.

Experiments:
[1] = In vitro metabolic stability in human intestine S9; format: in vitro ADME; conditions: human, intestinal S9; 37° C., 10 μM compound, 1 mg/mL S9, NADPH regeneration system; read-out: Human intestine S9 T1/2
Method: (§1) This example detects the metabolic stability of the compounds of the present disclosure in human (rat) plasma and intestinal S9 in vitro. In a human (rat) plasma reaction system, 990 μl of human (rat) plasma was taken and incubated at 37° C. for 5 minutes, and 10 μl of the compound mother liquor was used to initiate the reaction. In the human (rat) intestinal S9 stability experiment, in the order shown in Table 2 below, the samples were added and incubated in a 37° C. water bath to initiate the reaction, each sample performed in triplicates. Respectively, at 1 minute, 2 minutes, 5 minutes, 15 minutes, 30 minutes after the reaction began, 100 μL of each was taken and added to a centrifuge tube containing 400 μL of 0° C. precooled internal standard working solution. The reaction was terminated, vortexed and mixed for 1 minute, centrifuged at 10000×g for 10 minutes in a 4° C. precooled high-speed centrifuge, and the supernatant was detected with HPLC. The test results were used to calculate metabolic half-life using WinNonlin (version 6.2 Pharsight, Mountain View, Calif.) with a non-compartmental model.
(§2) Compound stock solution concentration: 1 mM
(§3) Reaction matrix: human (rat) plasma, intestinal S9 purchased from Research Institute for Liver Diseases (Shanghai) Co., Ltd.

[2] = test system: Candida albicans ATCC10231; assay: Systemic fungal infection in mice, intragastric administration; format: in vivo, ICR mice; conditions: Candida albicans, ATCC10231, po
Method: (§4) ICR mice, weighing 18-22 g, male, provided by Hubei Experimental Animal Center.
Prior to the experiment, a small amount of Candida albicans was picked from an SDA medium kept at 4° C. with an inoculation loop and inoculated into 1 ml YPD culture medium, cultured at 30° C. with 200 rpm shaking and activated for 16 hours, so that the fungus was in the late stage of exponential growth. Counted with a hemocytometer and the fungal solution concentration was adjusted to 1×10^3 to 5×10^3 CFU/ml with RPMI1640 medium. Monoclonal Candida albicans on SDA plate was picked up, inoculated into 1 ml YPD (Yeast Extract Peptone Dextrose Medium, the same below) culture medium, cultured at 35° C., 200 rpm for 16 hours until late exponential growth phase. Candida albicans was inoculated into fresh medium for culturing for 6 hours at 1%, centrifuged at 1000×g for 5 minutes, washed with physiological saline three times until the supernatant was colorless, counted with a hemocytometer, and the cell concentration was adjusted to 5×10^6 cells/ml. A tail vein injection of 0.1 ml/10 g caused a systemic fungal infection in mice. […] A total of 7 days of observations were performed. All dead mice were burned with ethanol.

[3] = In vitro metabolic stability in rat plasma; format: in vitro ADME; conditions: rat, plasma, 37° C., 10 μM compound, read-out: Rat plasma T1/2
Method: as §1, §2, §3

[4] = Determination of solubility in deionized water (HPLC, external standard); conditions: 25 °C, water, thermodynamic from solid
[5] = Solid stability test (stability chamber, HPLC total impurity); format: physicochemical
[6] = In vitro metabolic stability in rat intestine S9; format: in vitro ADME; conditions: rat, intestinal S9, pH 7.4; 37° C., 10 μM compound, 1 mg/mL S9, NADPH regeneration system; read-out: Rat intestine S9 T1/2
Method: as §1, §2, §3

[7] = In vitro metabolic stability in human plasma; format: in vitro ADME; conditions: human, plasma, 37° C., 10 μM compound, read-out: Human plasma T1/2
Method: as §1, §2, §3

[8] = test system: Candida albicans ATCC10231; assay: Systemic fungal infection in mice, intravenous administration; format: in vivo, ICR mice
Method: as §4
Prior to the experiment, a small amount of Candida albicans was picked from an SDA (sacharomyces agar, the same below) medium kept at 4° C. with an inoculation loop and inoculated into 1 ml YPD (Yeast Extract Peptone Dextrose Medium) culture medium, cultured at 30° C. with 200 rpm shaking and activated for 16 hours, so that the fungus was in the late stage of exponential growth. Counted with a hemocytometer and the fungal solution concentration was adjusted to 1×10^3-5×10^3 CFU/ml with RPMI1640 medium (Roswell Park Memorial Institute 1640, the same below). Monoclonal Candida albicans on SDA plate was picked up, inoculated into 1 ml YPD (Yeast Extract Peptone Dextrose Medium, the same below) culture medium, cultured at 35° C., 200 rpm for 16 hours until late exponential growth phase. Candida albicans was inoculated into fresh medium for culturing for 6 hours at 1%, centrifuged at 1000×g for 5 minutes, washed with physiological saline three times until the supernatant was colorless, counted with a hemocytometer, and the cell concentration was adjusted to 5×10^6 cells/ml. A tail vein injection of 0.1 ml/10 g caused a systemic fungal infection in mice. […] A total of 7 days of observations were performed. All dead mice were burned with ethanol.

[9] = 24 h, read-out: survival rate of mice, day 1, 20 mg/kg intragastric once daily for 5 days, day 1
[10] = 48 h, read-out: survival rate of mice, day 2, 20 mg/kg intragastric once daily for 5 days, day 2
[11] = 72 h, read-out: survival rate of mice, day 3, 20 mg/kg intragastric once daily for 5 days, day 3
[12] = 96 h, read-out: survival rate of mice, day 4, 20 mg/kg intragastric once daily for 5 days, day 4
[13] = 120 h, read-out: survival rate of mice, day 5, 20 mg/kg intragastric once daily for 5 days, day 5
[14] = 144 h, read-out: survival rate of mice, day 6, 20 mg/kg intragastric once daily for 5 days, day 6
[15] = 168 h, read-out: survival rate of mice, day 7, 20 mg/kg intragastric once daily for 5 days, day 7
[16] = 24 h, read-out: survival rate of mice, day 1
[17] = 48 h, read-out: survival rate of mice, day 2
[18] = 72 h, read-out: survival rate of mice, day 3
[19] = 96 h, read-out: survival rate of mice, day 4
[20] = 120 h, read-out: survival rate of mice, day 5
[21] = 144 h, read-out: survival rate of mice, day 6
[22] = 168 h, read-out: survival rate of mice, day 7

Compound | half-life at 10 µM [1] [min] | responders at 20 mg/kg [2, 9] [%] | responders at 20 mg/kg [2, 10] [%] | responders at 20 mg/kg [2, 11] [%] | responders at 20 mg/kg [2, 12] [%] | responders at 20 mg/kg [2, 13] [%] | responders at 20 mg/kg [2, 14] [%] | responders at 20 mg/kg [2, 15] [%] | half-life at 10 µM [3] [min] | solubility at 30 min [4] [mg/mL] | Total impurity increment in 30 days [5] [%] | half-life at 10 µM [6] [min] | half-life at 10 µM [7] [min] | also measured
CC[C@@H]([C@H](C)O)n1ncn(-c2ccc(N3CCN(c4ccc(OC[C@@H]5CO[C@@](Cn6c[n+](C(C)OC(=O)N(C)c7ncccc7COC(=O)[C@@H](N)CCC(N)=O)cn6)(c6ccc(F)cc6F)C5)cc4)CC3)cc2)c1=O (stereo partly shown) [ST0022] | 17.7 ± 4.52 | 100 | 100 | 100 | 90 | 80 | 80 | 70 | 1.12 ± 0.45 | > 50 | 0.48 | 19 ± 5.36 | 1.39 ± 0.52 | –
CC[C@@H]([C@H](C)O)n1ncn(-c2ccc(N3CCN(c4ccc(OC[C@@H]5CO[C@@](Cn6c[n+](C(C)OC(=O)N(C)c7ncccc7COC(=O)[C@@H](N)CC(N)=O)cn6)(c6ccc(F)cc6F)C5)cc4)CC3)cc2)c1=O (stereo partly shown) [ST0023] | 15 ± 3.78 | 100 | 100 | 90 | 90 | 90 | 80 | 80 | 0.55 ± 0.78 | > 50 | 0.42 | 16.7 ± 2.96 | 0.94 ± 0.15 | responders at 20 mg/kg [8, 16]: 100%; responders at 20 mg/kg [8, 17]: 100%; responders at 20 mg/kg [8, 18]: 100%; responders at 20 mg/kg [8, 19]: 100%; responders at 20 mg/kg [8, 20]: 100%; responders at 20 mg/kg [8, 21]: 90%; responders at 20 mg/kg [8, 22]: 90%
CC[C@@H]([C@H](C)O)n1ncn(-c2ccc(N3CCN(c4ccc(OC[C@@H]5CO[C@@](Cn6c[n+](C(C)OC(=O)N(C)c7ncccc7COC(=O)[C@@H](N)CCCCN)cn6)(c6ccc(F)cc6F)C5)cc4)CC3)cc2)c1=O (stereo partly shown) [ST0024] | 12.2 ± 5.9 | 100 | 90 | 90 | 80 | 80 | 70 | 70 | 2.51 ± 0.69 | > 50 | 0.62 | 15.6 ± 5.96 | 1.57 ± 0.34 | –
CC[C@@H]([C@H](C)O)n1ncn(-c2ccc(N3CCN(c4ccc(OC[C@@H]5CO[C@@](Cn6c[n+](C(C)OC(=O)N(C)c7ncccc7COC(=O)[C@@H](N)CO)cn6)(c6ccc(F)cc6F)C5)cc4)CC3)cc2)c1=O (stereo partly shown) [ST0025] | 25 ± 4.76 | 100 | 100 | 90 | 90 | 80 | 80 | 80 | 1.22 ± 0.85 | > 50 | 0.55 | 22.5 ± 5.96 | 0.92 ± 0.03 | responders at 20 mg/kg [8, 16]: 100%; responders at 20 mg/kg [8, 17]: 100%; responders at 20 mg/kg [8, 18]: 100%; responders at 20 mg/kg [8, 19]: 100%; responders at 20 mg/kg [8, 20]: 100%; responders at 20 mg/kg [8, 21]: 90%; responders at 20 mg/kg [8, 22]: 90%
CC[C@@H]([C@H](C)O)n1ncn(-c2ccc(N3CCN(c4ccc(OC[C@@H]5CO[C@@](Cn6c[n+](C(C)OC(=O)N(C)c7ncccc7COC(=O)[C@@H](N)[C@@H](C)O)cn6)(c6ccc(F)cc6F)C5)cc4)CC3)cc2)c1=O (stereo partly shown) [ST0026] | 16.4 ± 7.54 | 100 | 100 | 90 | 80 | 70 | 70 | 70 | 2.69 ± 1.21 | > 50 | 0.46 | 19 ± 5.96 | 1.03 ± 0.09 | –
CC[C@@H]([C@H](C)O)n1ncn(-c2ccc(N3CCN(c4ccc(OC[C@@H]5CO[C@@](Cn6c[n+](C(C)OC(=O)N(C)c7ncccc7COC(=O)[C@@H](N)Cc7ccc(O)cc7)cn6)(c6ccc(F)cc6F)C5)cc4)CC3)cc2)c1=O (stereo partly shown) [ST0027] | 45.9 ± 8.12 | – | – | – | – | – | – | – | 15.9 ± 7.85 | > 50 | 0.75 | 39.5 ± 6.69 | 20.4 ± 3.65 | –
CC[C@@H]([C@H](C)O)n1ncn(-c2ccc(N3CCN(c4ccc(OC[C@@H]5CO[C@@](Cn6c[n+](C(C)OC(=O)N(C)c7ncccc7COC(=O)CN(C)C)cn6)(c6ccc(F)cc6F)C5)cc4)CC3)cc2)c1=O (stereo partly shown) [ST0045] | 33.2 ± 4.23 | – | – | – | – | – | – | – | 11.9 ± 2.96 | > 50 | 1.68 | 26 ± 5.69 | 15.2 ± 3.99 | –
CC[C@@H]([C@H](C)OC(=O)OC(C)OC(=O)CNC)n1ncn(-c2ccc(N3CCN(c4ccc(OC[C@@H]5CO[C@@](Cn6cncn6)(c6ccc(F)cc6F)C5)cc4)CC3)cc2)c1=O.Cl (stereo partly shown) [ST0053] | 50.2 ± 5.15 | – | – | – | – | – | – | – | 21.2 ± 4.52 | – | – | 48.2 ± 6.85 | 19.9 ± 3.01 | responders at 20 mg/kg ([2]; 24 h, 20 mg/kg intragastric once daily for 5 days, day 1, read-out: survival rate of mice, day 1): 90%; responders at 20 mg/kg ([2]; 48 h, 20 mg/kg intragastric once daily for 5 days, day 2, read-out: survival rate of mice, day 2): 80%; responders at 20 mg/kg ([2]; 72 h, 20 mg/kg intragastric once daily for 5 days, day 3, read-out: survival rate of mice, day 3): 70%; responders at 20 mg/kg ([2]; 96 h, 20 mg/kg intragastric once daily for 5 days, day 4, read-out: survival rate of mice, day 4): 60%; responders at 20 mg/kg ([2]; 120 h, 20 mg/kg intragastric once daily for 5 days, day 5, read-out: survival rate of mice, day 5): 60%; responders at 20 mg/kg ([2]; 144 h, 20 mg/kg intragastric once daily for 5 days, day 6, read-out: survival rate of mice, day 6): 60%; responders at 20 mg/kg ([2]; 168 h, 20 mg/kg intragastric once daily for 5 days, day 7, read-out: survival rate of mice, day 7): 60%; Total impurity increment in 30 days ([5]; solid, packaged, 25° C.±2° C., relative humidity 60%±2%): 0.85%
